From ChEMBL document CHEMBL1201862, “PubChem BioAssay data set” (2004)
Activity calls are given as the source filed them.

How the values were obtained:
[1] = target: Genome polyprotein (dengue virus type 2, UniProt P29990); assay: Dengue-2 NS5 methyltransferase inhibitors, primary screen, biochemical, confirmation dose response (AID 588689); assay type: functional
[2] = target: T1, Hexokinase HKDC1 (Homo sapiens, UniProt Q2TB90); assay: HKDC1 hexokinase inhibitors, dose response, biochemical, W721R variant (AID 504729); assay type: functional
T1 sequence (Q2TB90 whole entry): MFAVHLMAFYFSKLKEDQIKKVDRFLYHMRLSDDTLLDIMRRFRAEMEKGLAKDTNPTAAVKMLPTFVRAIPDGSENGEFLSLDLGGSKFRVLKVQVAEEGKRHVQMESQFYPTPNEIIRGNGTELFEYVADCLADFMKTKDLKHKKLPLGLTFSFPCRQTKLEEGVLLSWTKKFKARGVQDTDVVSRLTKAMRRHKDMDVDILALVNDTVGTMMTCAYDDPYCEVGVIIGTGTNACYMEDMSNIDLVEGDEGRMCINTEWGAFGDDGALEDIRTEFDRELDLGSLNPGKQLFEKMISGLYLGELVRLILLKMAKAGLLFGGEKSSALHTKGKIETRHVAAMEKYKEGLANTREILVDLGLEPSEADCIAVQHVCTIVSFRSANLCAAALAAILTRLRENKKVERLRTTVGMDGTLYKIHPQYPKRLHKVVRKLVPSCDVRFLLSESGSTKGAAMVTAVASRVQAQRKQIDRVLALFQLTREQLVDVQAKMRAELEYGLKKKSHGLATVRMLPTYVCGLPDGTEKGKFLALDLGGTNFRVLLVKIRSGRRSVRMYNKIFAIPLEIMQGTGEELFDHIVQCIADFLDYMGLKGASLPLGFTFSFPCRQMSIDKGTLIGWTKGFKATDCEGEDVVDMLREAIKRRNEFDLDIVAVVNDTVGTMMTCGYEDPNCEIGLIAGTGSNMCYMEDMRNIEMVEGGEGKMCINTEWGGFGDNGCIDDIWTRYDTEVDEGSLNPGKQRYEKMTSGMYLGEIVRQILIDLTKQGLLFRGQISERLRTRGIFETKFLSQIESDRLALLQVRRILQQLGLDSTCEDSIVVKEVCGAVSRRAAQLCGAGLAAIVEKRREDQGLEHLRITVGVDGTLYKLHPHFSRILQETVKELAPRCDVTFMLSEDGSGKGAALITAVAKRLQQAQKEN

[3] = target: Scavenger receptor class B member 1 (Mus musculus, UniProt Q61009); assay: inhibitors of SR-BI mediated HDL lipid uptake, dose response, ldlA[mSR-BI] cells, fluorescence, cherry pick (AID 493194); assay type: functional, cell-based;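 also: cellular uptake of fluorescent DiI-labeled HDL measured as cell fluorescence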
[4] = target: Aspartyl aminopeptidase (Plasmodium falciparum 3D7, UniProt Q8I2J3)
[5] = target: Procathepsin L (Homo sapiens, UniProt P07711)
[6] = cytotoxicity toward NIH3T3 fibroblasts, dose response, counter-screen, cell-based, ATP luminescence, mouse fibroblasts (AID 2010); assay type: functional;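 also: cells exposed to compound for about 90 hours before reading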
[7] = cells
[8] = inhibitors of intracellular T. cruzi replication, confirmation, NIH3T3 host cells, beta-gal luminescence (AID 2044); assay type: functional, cell-based;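 also: intracellular parasites grown in NIH/3T3 mouse fibroblasts as host cells; luminescent beta-galactosidase reporter signal from transgenic T. cruzi replicating inside host cells; inhibitors lower the luminescence signal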
[9] = cytotoxicity in HEK-293T cells, dose response, cytotoxicity control for BCR NF-kB inhibitor project, luminescence, B-cell screen hits (AID 489021); assay type: functional, cell-based;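 also: HEK-293T cells carrying an NF-kB luciferase reporter; cells exposed to compound for about 14 hours before viability readout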
[10] = Luminescence-based dose response cell-based high throughput screening assay for cytotoxic compounds using the IEC-6 intestinal epithelial cell line. [Related pubchem assays: 1858 (Summary AID.), 1825 (Counterscreen.), 1907 (Confirmation screen.)]; assay type: functional
[11] = target: T2, E3 ubiquitin-protein ligase XIAP (Homo sapiens, UniProt P98170); assay: XIAP antagonists, biochemical, IAP family, fluorescence polarization (AID 1018); assay type: functional
[12] = target: T3, Carboxy-terminal domain RNA polymerase II polypeptide A small phosphatase 1 (Homo sapiens, UniProt Q9GZU7); assay: inhibitors of CTDSP1, concentration-response testing, biochemical assay, absorbance-based, actives from ultra-high-throughput screening (AID 540297); assay type: functional
T3 sequence (Q9GZU7 whole entry): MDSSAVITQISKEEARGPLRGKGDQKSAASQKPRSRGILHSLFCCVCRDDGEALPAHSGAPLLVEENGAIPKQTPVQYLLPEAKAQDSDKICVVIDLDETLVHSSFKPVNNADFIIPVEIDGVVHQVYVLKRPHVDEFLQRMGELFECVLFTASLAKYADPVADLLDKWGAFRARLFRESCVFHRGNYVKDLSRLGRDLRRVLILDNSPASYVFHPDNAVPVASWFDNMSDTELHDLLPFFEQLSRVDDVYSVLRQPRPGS

[13] = target: T2, E3 ubiquitin-protein ligase XIAP; assay: Counter Screen using XIAP-Bir3 for Chemical Antagonists of Bir1/2 domains of IAP-family anti-apoptotic proteins. [Related pubchem assays (depositor defined):AID1018, AID1449, AID1514, AID1638, AID1749, AID1750, AID488957, AID488963]
[14] = M. tuberculosis H37Rv growth inhibitors, H37Rv strain (AID 1626); assay type: functional
[15] = HepG2 cell cytotoxicity, dose response, cytotoxicity control, ATP luminescence, cherry-pick, activator set 2 (AID 1053143); assay type: functional, cell-based
[16] = tested on: BJ; assay: cells; assay type: functional, cell-based; conditions: Homo sapiens
[17] = tested on: BJ; assay: cytotoxicity toward BJ-TERT-LT-ST fibroblasts, dose response, cell-based, RAS-independent, luminescence (AID 1935); assay type: functional; conditions: Homo sapiens;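 also: BJ fibroblasts immortalized with TERT plus LT and ST oncogenes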
[18] = target: T4, Short transient receptor potential channel 4 (Mus musculus, UniProt Q9QUQ5); assay: mouse TRPC4 channel activators, dose response, cell-based, HEK293 TRPC4/mu-opioid, Fluo-4 calcium (AID 434937); assay type: functional
T4 sequence (Q9QUQ5 whole entry): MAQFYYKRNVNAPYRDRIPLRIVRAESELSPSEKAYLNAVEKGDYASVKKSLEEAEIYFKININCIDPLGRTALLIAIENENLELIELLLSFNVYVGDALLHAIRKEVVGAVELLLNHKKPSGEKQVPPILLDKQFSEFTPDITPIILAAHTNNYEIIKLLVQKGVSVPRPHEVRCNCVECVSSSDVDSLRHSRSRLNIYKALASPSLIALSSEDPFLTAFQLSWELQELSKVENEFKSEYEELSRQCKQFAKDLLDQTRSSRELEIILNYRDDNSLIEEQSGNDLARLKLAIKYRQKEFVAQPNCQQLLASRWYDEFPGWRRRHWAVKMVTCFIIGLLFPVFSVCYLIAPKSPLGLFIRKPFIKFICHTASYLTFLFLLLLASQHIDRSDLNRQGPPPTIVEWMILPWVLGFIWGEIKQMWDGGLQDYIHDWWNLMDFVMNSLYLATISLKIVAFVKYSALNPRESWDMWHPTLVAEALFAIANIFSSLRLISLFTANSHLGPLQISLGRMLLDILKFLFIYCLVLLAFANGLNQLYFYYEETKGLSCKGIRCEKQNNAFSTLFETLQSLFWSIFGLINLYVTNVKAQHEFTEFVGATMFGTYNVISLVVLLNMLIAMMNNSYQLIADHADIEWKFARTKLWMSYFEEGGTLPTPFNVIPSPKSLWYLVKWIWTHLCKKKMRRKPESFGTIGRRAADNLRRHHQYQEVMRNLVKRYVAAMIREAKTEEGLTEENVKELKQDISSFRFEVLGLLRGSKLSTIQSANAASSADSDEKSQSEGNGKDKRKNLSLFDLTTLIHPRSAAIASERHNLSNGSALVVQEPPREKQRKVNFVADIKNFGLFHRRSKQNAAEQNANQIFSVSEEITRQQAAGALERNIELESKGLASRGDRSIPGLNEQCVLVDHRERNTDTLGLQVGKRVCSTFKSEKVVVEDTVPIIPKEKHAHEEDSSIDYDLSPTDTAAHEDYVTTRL

[19] = cytotoxicity toward DRD oncogenic fibroblasts, dose response, cell-based, non-viral oncogenic, luminescence (AID 1934); assay type: functional; conditions: Homo sapiens
[20] = tested on: BJ; assay: cytotoxicity toward BJ-TERT fibroblasts, dose response, cell-based, RAS-independent, luminescence (AID 1933); assay type: functional; conditions: Homo sapiens
[21] = target: Nonstructural protein 1 (Influenza A virus, UniProt Q194T2); assay type: functional, Influenza A virus (A/California/07/2009(H1N1))
[22] = tested on: Vero; assay: cells; assay type: functional; conditions: Chlorocebus sabaeus
[23] = target: T5, Polyadenylate-binding protein 1 (Homo sapiens, UniProt P11940); assay: PABP1 MLLE–PAM2 interaction inhibitors, dose response, miRNA deadenylation inhibitor project, biochemical, fluorescence polarization, Cy5-PAM2 peptide, secondary (AID 602260); assay type: functional; conditions: read-out: IC50_Mean
[24] = tested on: Vero; assay: host cell cytotoxicity of antiviral hits, dose response, cytotoxicity control for West Nile virus antiviral project, secondary assay (AID 1650); assay type: functional; conditions: Chlorocebus sabaeus
[25] = target: T5, Polyadenylate-binding protein 1; assay: PABP1 MLLE–PAM2 binding inhibitor potency, dose response, biochemical, fluorescence polarization, FITC-PAM2 peptide (AID 602259); assay type: functional; conditions: read-out: IC50_Mean
[26] = target: Prothrombin (Homo sapiens, UniProt P00734); assay: Thrombin 1536 HTS Dose Response Confirmation. [Related pubchem assays: 1046 (Thrombin 1536 HTS; hits were confirmed in this assay)]; assay type: functional
[27] = target: T6, Estrogen receptor beta (Homo sapiens, UniProt Q92731);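 also: recombinant ER-beta bound to coactivator SRC1 peptide in presence of estradiol agonist; inhibitors block coactivator peptide binding and lower the FRET signal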
[28] = target: Estrogen receptor (Homo sapiens, UniProt P03372);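 also: potency for inhibiting coactivator peptide recruitment to the receptor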
[29] = target: T6, Estrogen receptor beta; assay: ERβ–SRC-3 coactivator interaction inhibitors, confirmation, orthogonal assay, biochemical, ELISA, streptavidin-HRP readout (AID 1060)
[30] = target: Lysosomal acid glucosylceramidase (Homo sapiens, UniProt P04062); assay: Dose response cell-based high throughput screening assay to identify enhancers of beta-glucosidase activity. [Related pubchem assays: 784 ]; assay type: functional
[31] = target: T7, Bcl-2-like protein 10 (Homo sapiens, UniProt Q9HD36); assay: displacers of TR3 peptide from Bcl-B, primary screen, selectivity assay for Bfl-1 inhibitor project, biochemical, fluorescence polarization, FITC-TR3 peptide (AID 748);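 also: fluorescence polarization from a fluorescein-labelled TR3 peptide binding purified Bcl-B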
T7 sequence (Q9HD36 whole entry): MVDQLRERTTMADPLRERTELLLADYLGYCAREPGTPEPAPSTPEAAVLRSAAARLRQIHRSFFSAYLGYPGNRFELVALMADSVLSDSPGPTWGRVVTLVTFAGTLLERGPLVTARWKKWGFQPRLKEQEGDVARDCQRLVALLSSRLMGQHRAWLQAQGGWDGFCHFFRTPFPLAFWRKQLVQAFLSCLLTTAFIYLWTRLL

T6 sequence (Q92731 whole entry): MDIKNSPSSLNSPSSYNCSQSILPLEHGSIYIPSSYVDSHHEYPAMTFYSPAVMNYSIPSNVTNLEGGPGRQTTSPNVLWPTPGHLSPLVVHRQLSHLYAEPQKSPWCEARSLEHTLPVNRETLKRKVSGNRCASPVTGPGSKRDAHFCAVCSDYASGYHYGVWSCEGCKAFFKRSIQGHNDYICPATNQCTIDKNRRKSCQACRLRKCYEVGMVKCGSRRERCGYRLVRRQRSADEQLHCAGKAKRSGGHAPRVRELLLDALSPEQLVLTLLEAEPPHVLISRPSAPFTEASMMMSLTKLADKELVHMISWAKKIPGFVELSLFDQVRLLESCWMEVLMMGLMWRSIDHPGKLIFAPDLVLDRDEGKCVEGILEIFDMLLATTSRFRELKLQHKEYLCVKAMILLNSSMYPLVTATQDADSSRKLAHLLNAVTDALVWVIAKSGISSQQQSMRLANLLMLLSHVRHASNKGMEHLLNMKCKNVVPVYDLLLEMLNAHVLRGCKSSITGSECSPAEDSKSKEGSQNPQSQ
T2 sequence (P98170 whole entry, the tested form may be a part): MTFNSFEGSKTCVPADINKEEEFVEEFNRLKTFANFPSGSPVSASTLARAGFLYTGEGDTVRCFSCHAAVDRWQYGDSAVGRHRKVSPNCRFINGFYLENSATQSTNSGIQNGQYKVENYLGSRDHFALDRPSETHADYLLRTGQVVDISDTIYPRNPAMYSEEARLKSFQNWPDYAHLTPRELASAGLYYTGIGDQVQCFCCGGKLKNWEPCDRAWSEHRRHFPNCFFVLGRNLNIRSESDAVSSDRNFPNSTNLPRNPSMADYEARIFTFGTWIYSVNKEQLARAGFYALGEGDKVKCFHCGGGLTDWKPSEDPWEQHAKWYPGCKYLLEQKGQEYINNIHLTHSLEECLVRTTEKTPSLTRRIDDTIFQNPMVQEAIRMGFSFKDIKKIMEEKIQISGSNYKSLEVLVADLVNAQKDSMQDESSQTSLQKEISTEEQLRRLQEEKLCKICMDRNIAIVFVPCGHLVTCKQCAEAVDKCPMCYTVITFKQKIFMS
Sequence of Lysosomal acid glucosylceramidase (P04062 whole entry): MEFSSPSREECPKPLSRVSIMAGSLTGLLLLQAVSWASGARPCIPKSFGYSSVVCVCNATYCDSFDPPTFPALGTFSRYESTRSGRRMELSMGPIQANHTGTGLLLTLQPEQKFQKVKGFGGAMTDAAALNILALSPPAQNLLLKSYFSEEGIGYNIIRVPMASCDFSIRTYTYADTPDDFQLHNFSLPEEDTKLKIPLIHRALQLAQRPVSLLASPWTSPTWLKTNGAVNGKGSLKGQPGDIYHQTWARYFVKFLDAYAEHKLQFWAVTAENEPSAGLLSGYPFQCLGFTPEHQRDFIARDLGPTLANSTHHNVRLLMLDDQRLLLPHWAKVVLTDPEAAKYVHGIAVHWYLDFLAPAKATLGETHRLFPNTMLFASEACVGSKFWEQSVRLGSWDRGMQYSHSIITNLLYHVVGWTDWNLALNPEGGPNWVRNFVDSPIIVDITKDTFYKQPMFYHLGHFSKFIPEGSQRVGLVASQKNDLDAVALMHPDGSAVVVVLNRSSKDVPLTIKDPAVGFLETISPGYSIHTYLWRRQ
T5 sequence (P11940 whole entry): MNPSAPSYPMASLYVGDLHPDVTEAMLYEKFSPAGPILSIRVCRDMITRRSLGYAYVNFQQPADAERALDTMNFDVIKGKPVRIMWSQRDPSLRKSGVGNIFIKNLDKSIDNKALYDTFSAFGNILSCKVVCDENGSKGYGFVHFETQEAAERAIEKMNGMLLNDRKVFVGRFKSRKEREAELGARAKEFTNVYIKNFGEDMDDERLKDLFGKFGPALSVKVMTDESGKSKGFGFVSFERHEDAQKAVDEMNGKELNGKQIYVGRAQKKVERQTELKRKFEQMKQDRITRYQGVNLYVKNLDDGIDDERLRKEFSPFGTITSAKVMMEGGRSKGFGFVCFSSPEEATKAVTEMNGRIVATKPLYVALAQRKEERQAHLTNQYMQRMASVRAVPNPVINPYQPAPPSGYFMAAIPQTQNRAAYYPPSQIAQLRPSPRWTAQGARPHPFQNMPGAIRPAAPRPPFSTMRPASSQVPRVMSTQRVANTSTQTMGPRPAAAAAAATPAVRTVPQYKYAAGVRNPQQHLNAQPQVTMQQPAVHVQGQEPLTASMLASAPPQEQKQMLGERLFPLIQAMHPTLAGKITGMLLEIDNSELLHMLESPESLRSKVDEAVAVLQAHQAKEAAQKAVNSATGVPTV
Sequence of Aspartyl aminopeptidase (Q8I2J3 whole entry): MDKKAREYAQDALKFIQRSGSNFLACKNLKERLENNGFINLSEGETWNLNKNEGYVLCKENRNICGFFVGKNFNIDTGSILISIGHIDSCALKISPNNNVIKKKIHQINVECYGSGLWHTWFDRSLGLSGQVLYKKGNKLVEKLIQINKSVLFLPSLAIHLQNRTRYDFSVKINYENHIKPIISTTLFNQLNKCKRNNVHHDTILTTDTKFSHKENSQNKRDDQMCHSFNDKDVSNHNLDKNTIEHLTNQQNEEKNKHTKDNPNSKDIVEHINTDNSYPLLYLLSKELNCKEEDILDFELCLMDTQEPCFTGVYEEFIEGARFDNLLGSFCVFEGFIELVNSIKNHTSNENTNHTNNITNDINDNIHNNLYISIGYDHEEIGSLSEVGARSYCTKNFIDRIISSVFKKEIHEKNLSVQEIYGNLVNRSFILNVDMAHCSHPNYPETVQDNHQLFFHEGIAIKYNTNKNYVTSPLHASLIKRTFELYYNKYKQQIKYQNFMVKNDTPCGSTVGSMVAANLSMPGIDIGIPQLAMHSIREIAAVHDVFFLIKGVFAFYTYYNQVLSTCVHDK
Sequence of Estrogen receptor (P03372 whole entry): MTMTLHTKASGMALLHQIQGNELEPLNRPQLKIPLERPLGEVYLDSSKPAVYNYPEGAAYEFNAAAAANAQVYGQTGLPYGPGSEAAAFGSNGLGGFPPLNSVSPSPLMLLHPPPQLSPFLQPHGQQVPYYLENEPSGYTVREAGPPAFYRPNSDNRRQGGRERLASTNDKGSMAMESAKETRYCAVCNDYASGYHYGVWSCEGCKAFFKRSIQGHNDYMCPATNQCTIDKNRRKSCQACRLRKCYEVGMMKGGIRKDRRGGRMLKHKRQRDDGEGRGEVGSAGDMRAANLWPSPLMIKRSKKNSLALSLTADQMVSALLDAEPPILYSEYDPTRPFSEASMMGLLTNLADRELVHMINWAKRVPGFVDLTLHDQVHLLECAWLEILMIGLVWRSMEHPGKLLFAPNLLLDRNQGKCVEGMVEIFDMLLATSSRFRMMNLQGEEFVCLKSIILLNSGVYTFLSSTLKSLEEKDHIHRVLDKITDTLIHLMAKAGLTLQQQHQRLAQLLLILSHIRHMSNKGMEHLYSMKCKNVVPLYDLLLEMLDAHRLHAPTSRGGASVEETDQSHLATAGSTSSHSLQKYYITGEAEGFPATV
Sequence of Procathepsin L (P07711 whole entry): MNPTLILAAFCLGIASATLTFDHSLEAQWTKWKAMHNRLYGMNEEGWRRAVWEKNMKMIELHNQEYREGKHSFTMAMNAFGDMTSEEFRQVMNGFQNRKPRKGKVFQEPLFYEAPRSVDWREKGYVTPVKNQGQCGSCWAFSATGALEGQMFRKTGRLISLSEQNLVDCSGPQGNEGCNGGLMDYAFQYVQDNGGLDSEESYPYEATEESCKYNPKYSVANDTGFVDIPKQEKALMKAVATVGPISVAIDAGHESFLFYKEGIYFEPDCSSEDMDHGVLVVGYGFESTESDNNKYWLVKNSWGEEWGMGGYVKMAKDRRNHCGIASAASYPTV
Sequence of Scavenger receptor class B member 1 (Q61009 whole entry): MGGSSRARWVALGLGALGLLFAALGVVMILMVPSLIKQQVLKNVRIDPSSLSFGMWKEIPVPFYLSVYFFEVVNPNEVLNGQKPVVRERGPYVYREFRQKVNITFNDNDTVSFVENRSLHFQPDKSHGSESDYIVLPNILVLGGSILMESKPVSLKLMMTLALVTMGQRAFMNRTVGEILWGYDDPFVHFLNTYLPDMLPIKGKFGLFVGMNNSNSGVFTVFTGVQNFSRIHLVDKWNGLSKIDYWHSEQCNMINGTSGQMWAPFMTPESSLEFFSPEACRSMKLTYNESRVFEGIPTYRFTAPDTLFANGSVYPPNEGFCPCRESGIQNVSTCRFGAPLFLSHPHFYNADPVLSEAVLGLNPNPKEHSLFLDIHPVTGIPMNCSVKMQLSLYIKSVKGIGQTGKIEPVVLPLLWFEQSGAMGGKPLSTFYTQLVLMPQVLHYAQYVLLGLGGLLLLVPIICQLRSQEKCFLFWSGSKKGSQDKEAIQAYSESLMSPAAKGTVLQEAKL
Sequence of Nonstructural protein 1 (Q194T2 whole entry): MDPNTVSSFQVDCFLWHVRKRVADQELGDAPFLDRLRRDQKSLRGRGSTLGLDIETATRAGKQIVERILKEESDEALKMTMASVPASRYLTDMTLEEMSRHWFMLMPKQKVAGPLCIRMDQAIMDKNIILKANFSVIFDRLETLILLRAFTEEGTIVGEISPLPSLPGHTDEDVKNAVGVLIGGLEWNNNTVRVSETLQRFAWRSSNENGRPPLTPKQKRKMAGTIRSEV

COC1=CC(=O)C(C2CC(=O)c3c(O)cc(O)cc3O2)=CC1=O (stereo unspecified)
IC50 [1]: 9.23 µM (active)
IC50 [2]: 11.5 µM (active)

N#Cc1sc2nc(C3CC3)cc(-c3ccc(Cl)cc3)c2c1N
AC50 [3]: 2.36 µM (active)

OC(Cn1cnnc1)c1ccccc1 (stereo unspecified)
IC50 [4]: 0.603 µM (active)
IC50 [5]: > 59.6 µM (not active)

CN(CC1CCCN(CCc2cccc(C(F)(F)F)c2)C1)C(=O)c1ccco1 (stereo unspecified)
EC50 [6]: > 60 µM (not active)
EC50 [7]: 0.587 µM (active)
EC50 [8]: < 0.1 µM (active)

Cc1[nH]c2ccccc2c1/C=N/Nc1nc(Nc2ccc(F)cc2)nc(N2CCOCC2)n1
IC50 [9]: 51.2 µM (inactive)
IC50 [10]: 1.09 µM (active)

O=C(Nc1ccc(F)c(Cl)c1)Nn1cnnc1
IC50 [4]: 1.46 µM (active)
IC50 [5]: > 59.6 µM (not active)

O=C(O)c1cccc(N2C(=O)C3CC=C(Cl)CC3C2=O)c1 (stereo unspecified)
IC50 [11]: > 100 µM (not active)
IC50 [12]: 10.3 µM (active)
IC50 [13]: > 100 µM (inactive)

CCOC(=O)c1ccc(NC(=O)CSc2nnc(COc3ccccc3OC)n2C)cc1
IC50 [14]: > 100 µM (active)

COc1cc(OC)cc(-c2nc3cc(C)ccc3o2)c1
IC50 [11]: > 100 µM (not active)
IC50 [13]: > 100 µM (inactive)
AC50 [15]: 26 µM (active)

Nc1c(C(=O)c2ccccc2)sc2nsc(SCCN3CCCC3)c12
EC50 [16]: 7.28 µM (active)
EC50 [17]: 12.5 µM (active)
EC50 [18]: 5.96 µM (active)
EC50 [6]: 14.9 µM (active)
EC50 [19]: 15.1 µM (active)
EC50 [20]: 12.8 µM (active)
EC50 [8]: 0.636 µM (active)

CCC(C)C(=O)N1c2ccccc2C(=C2SC(C(=O)OC)=C(C(=O)OC)S2)C(=S)C1(C)C (stereo unspecified)
IC50 [21]: 17.7 µM (active)
CC50 [22]: 21.6 µM (active)
IC50 [23]: > 66 µM (inactive)
CC50 [24]: > 100 µM (active)
IC50 [25]: > 66 µM (inactive)

CSc1nc(-c2ccccc2)nn1C(=O)c1ccc(C)cc1
IC50 [26]: 0.028 µM (active)

CCc1ccc(NC(=O)C2CCCN(S(=O)(=O)c3ccc4nc(O)ccc4c3)C2)cc1 (stereo unspecified)
AC50 [3]: 27.5 µM (active)

O=C(c1cc([N+](=O)[O-])cc([N+](=O)[O-])c1)N1CCCc2ccccc21
EC50 [6]: > 60 µM (not active)
EC50 [7]: 0.203 µM (active)
EC50 [8]: < 0.1 µM (active)

COc1ccc(-c2nnc(SC/C(O)=C(/C#N)C(C)=N)o2)cc1
IC50 [27]: 11.2 µM (active)
IC50 [28]: 30 µM (not active)
IC50 [29]: 0.35 µM (not active)

O=S(=O)(Nc1cc(Sc2cccc3cccnc23)c(O)c2ccccc12)c1ccccc1
EC50 [16]: 22.1 µM (inconclusive)
EC50 [17]: > 75 µM (inconclusive)
CC50 [24]: 6.77 µM (active)
EC50 [19]: 16.1 µM (active)
EC50 [20]: 12.1 µM (inconclusive)

Cc1c(C)c2cc3c4c(oc3c(C)c2oc1=O)CCCC4
EC50 [30]: > 50 µM (not active)

Cc1cc(Cl)ccc1OCC(=O)OC(C)C(=O)N(C)C (stereo unspecified)
IC50 [27]: 16.7 µM (active)
IC50 [28]: 37 µM (not active)
IC50 [12]: 15.3 µM (active)
IC50 [31]: > 100 µM (inactive)
IC50 [29]: < 0.023 µM (not active)

Cc1ccc(C)n1-c1ccc(C(=O)NCC2CCCO2)cc1 (stereo unspecified)
EC50 [30]: > 50 µM (not active)
